Here are results for one compound from patent publication US7615536B2, “1,4-benzothiazepine 1,1-dioxide derivative, process for its preparation, medicaments comprising this compound, and use thereof as a hypolipidaemic” (Sanofi-Aventis Deutschland GmbH, priority 2005, dated 2009).

Molecules are shown by their SMILES.

The experiment concerns the target T1, recombinantly expressed human sodium-dependent ileal bile acid transporter (IBAT, ASBT, SLC10A2) (Homo sapiens, UniProt Q12908).
T1 construct: Bases 599 to 1645 correspond to the complete coding region of the human IBAT; expressed in transfected cells
T1 sequence (Q12908 1-348): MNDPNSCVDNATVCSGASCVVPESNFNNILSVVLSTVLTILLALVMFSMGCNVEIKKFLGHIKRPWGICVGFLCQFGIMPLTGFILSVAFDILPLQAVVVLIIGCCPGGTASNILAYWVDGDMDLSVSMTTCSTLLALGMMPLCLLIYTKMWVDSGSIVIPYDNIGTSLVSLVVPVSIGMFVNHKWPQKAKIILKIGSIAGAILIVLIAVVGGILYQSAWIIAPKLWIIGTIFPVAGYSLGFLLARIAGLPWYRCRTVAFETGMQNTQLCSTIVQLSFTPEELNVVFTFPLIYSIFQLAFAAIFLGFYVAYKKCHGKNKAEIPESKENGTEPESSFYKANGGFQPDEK
The experiment can be described thus: in vitro IBAT inhibition test ([3H]-taurocholic acid uptake into CHO-hIBAT cells). Format: cell-based. As for the experimental part:
Biological testing of the compound A according to the invention was carried out using the in vitro IBAT inhibition test. This test examines the effect of the compound according to the invention on the transport activity of the recombinantly expressed human sodium-dependent ileal bile acid transporter (IBAT=ileal Na^+/bile acid contransporter, ASBT=apical sodium-dependent bile acid transporter, SLC10A2=solute carrier family 10, member 2).
Preparation for and practice of the in vitro IBAT inhibition test:
1. Cloning of an Expression Vector for Human IBAT […]
CHO-hIBAT cells were sown at a concentration of 40 000 cells per well in cell culture medium in poly-D-lysine-coated 96-well plates and cultivated for 24h. […] Finally, 100 μL of scintillation fluid were added to each well, and the radioactivity taken up into the cells was determined in a MicroBeta scintillation microplate reader from Wallac.
The half-maximal inhibitory effect of the test compound (IC50 value, inhibitory concentration 50) was determined as follows:
• 1. […] This is the value measured in the absence of substance, measured in sodium-comprising transport assay buffer. • 2. […] This is the value measured in the absence of substance, measured in sodium-free transport assay buffer. • 3. […]

As to `CCCCC1(CCCC)CS(=O)(=O)c2ccc(N(C)C)cc2[C@@H](c2cccc(NC(=O)N[C@@H]3O[C@H](CO)[C@@H](O)[C@H](O)[C@H]3O)c2)N1` [Example A], the IC50 (as a rule, the midpoint of a concentration-inhibition curve) (CHO-hIBAT cells, taurocholic acid 10 μM, 60 min at room temperature) came out at 57 nM. For the same compound, under “relative to compound 11a, from the IC50 (human IBAT) values”, the “activity higher compared to comparative example from EP 1 169 313” value is 560%.
